Assay [1] deals with kidney glucose reabsorption. Briefly: Glycosuria by urine stick in healthy CD-1 mice after an SGLT inhibitor. It counts as in vivo. The following applies: phlorizin 20 mg/kg single SC injection. As to the method:
(§1) Dapagliflozin (0.1 mg/kg) was given to the mice by oral gavage. Control mice were not given any of the SGLT blockers. Tail blood glucose was tested by glucose test meter immediately before (time 0) and during 2 hours after injection. Glucose levels in the urine were tested by standard urine sticks (Multistix® 10 SG, Siemens Healthcare Diagnostics, Tarrytown, N.Y.).

Assay [2] has as its system peritoneal glucose transport. Description: Blood glucose in healthy CD-1 mice after intraperitoneal glucose-containing PD fluid. It is filed as in vivo. As to conditions: inhibitor given 15 min before intraperitoneal PD fluid, results not shown. As to the method: as §1
In assay [3] the test system is peritoneal glucose transport. Description: Renal failure mice: SC phlorizin followed by intraperitoneal PDF. It is filed as in vivo. As to conditions: renal failure CD-1 mice, phlorizin 20 mg/kg SC. How it is done:
(§2) Renal failure in mice and rats was induced by bilateral ureteral ligation, based on the procedure described, for example, in Kim et al. (2015) (Am J Physiol Renal Physio., 308(2):F131-139) and references cited therein. Briefly, mice were anesthetized with an intraperitoneal injection of a cocktail containing ketamine (200 mg/kg body weight) and xylazine (16 mg/kg body weight). After exposure of both the left and right kidneys through flank incision, right and left ureters were ligated completely near the kidney pelvis using a 5-0 silk tie.
A standard commercial PD fluid (Dianeal® 1.5% dextrose), diluted 1:4 in saline (comprising 0.375% glucose) was used. Blood glucose levels were measured by glucometer at indicated time points. Area under the curve (AUC) was calculated for all mice and used to compare the two groups. Concentrations of glucose in the peritoneum fluid measured 30 min after administration of PDF are depicted in FIG. 3C.

Assay [4] has as its system peritoneal glucose transport. Briefly: Renal failure mice: SC phlorizin followed by sodium-free PDF. The following applies: renal failure CD-1 mice; phlorizin 20 mg/kg SC; sodium free PDF 2 ml, 0.375% glucose. It is filed as in vivo. How it is done:
as §2
Dependency of glucose transport on SGLT inhibition during peritoneal dialysis with PDF not containing sodium was assessed.

The test system of assay [5] is peritoneal glucose transport. Briefly: Uremic mice: phlorizin-containing peritoneal dialysis fluid (PPDF) intraperitoneally. It is filed as in vivo. As to conditions: uremic CD-1 mice; 2 ml Dianeal 1.5% dextrose with 0.6 μM phlorizin (PPDF) i.p.; compared with separate applications of phlorizin and PDF; P<0.01 vs phlorizin-free PDF. How it is done: as §2
Blood glucose levels were measured by glucometer at indicated time points, and area under the curve (AUC) was calculated for all mice and used to compare the two groups (FIG. 5C; P<0.01).

The subject of assay [6] is glucose absorption from peritoneal fluid. Briefly: Uremic rat peritoneal dialysis model: PDF with or without phlorizin. It counts as in vivo, Sprague Dawley (SD) rats. The following applies: uremic SD rats, 120 min dwell. As to the method:
as §2
Animal experiments were approved by local Animal Care Committee. Male Sprague Dawley (SD) rats 200-250 gr, we purchased from Envigo RMS (Jerusalem, Israel), allowed to acclimatize for 1 week before the beginning of the experiment. Animals were anesthetized by intramuscular administration of a mixture of ketamine (200 mg/kg body wt) and xylazine (16 mg/kg body wt). Renal failure was induced by bilateral ureteral ligation as described in Materials and Methods. […] After anesthesia temporary catheters were introduced into the peritoneal cavity.
To PDF of both group 100 μl of fluorescein isothiocyanate-dextran was added, average molecular weight 2,000,000 (FITC Dextran −2000, 100 μg/ml, Sigma-Aldrich®, Israel). Dialysate and tail blood samples were obtained during 120 min dwell, every 15 min. Blood glucose level was measured by standard glucometer, dialysate glucose was measured in the chemistry laboratory of the Soroka Medical Center. Dilution of FITC-dextran was detected by florescence of dialysis fluid samples measured with a 96-well fluorimeter (SpectraMax® Paradigm® plate reader, Molecular Devices) at an emission wavelength of 535 nm and an excitation wavelength of 485 nm. Concentrations of unknown samples were calculated from a standard curve by extrapolation in a linear regression model.

SMILES strings stand for the structures.

Regarding `O=C(CCc1ccc(O)cc1)c1c(O)cc(O)cc1O[C@@H]1O[C@H](CO)[C@@H](O)[C@H](O)[C@H]1O` [phlorizin, phloretin-2′-β-D-glucopyranoside], the Duration of glycosuria result in assay [1] is listed as “more than 2 hours”. Besides, the “Glucose levels in urine (glycosuria score, urine stick)” value in assay [1] (dapagliflozin 0.1 mg/kg oral gavage) was “significant glycosuria”. The “Blood glucose levels vs control group” value in assay [2] is recorded as “significantly lower”; in assay [4] it was “no differences”; in assay [6] (20 ml PDF (1.5% Dianeal diluted 1:4) with phlorizin 100 μg/ml, P<0.01) it was “Significantly lower”. The “Blood glucose levels and AUC vs saline control” value in assay [3] (2 ml Dianeal 1.5% dextrose diluted 1:4 (0.375% glucose) i.p., P<0.05) is “mitigated hyperglycemia”. Further, the “Glucose levels in peritoneum fluid vs control” value in assay [3] (30 minutes from instillation of PDF) is on record as “significantly elevated”. Also, the “Reduction of blood glucose levels (AUC)” value in assay [5] was “significantly more effective”. In assay [6] (PDF with phlorizin 100 μg/ml, P<0.05), the “FITC-dextran concentration in PDF (dilution) vs control” value is listed as “significant diluted”. In addition, the “PDF (dialysate) glucose level vs control group” value in assay [6] (PDF with phlorizin 100 μg/ml, p<0.001) is listed as “significant declined”.
